Results reported in patent publication US9918964B2, “Reducing platelet activation, aggregation and platelet-stimulated thrombosis or blood coagulation by reducing mitochondrial respiration” (priority 2010, dated 2018).
≈ marks a conversion by molar mass, not a printed value. Where “and” joins values, the source holds several entries; their conditions need not be identical. Identical values can stand only once. Like-named read-outs stand apart in the source and are kept apart here.

Assays:
[1] = system: mitochondria isolated from liver of tilapia (Sarotheridon mossambica); type: biochemical
[2] = system: mitochondria isolated from liver of tilapia (Sarotheridon mossambica); type: biochemical; remark: listed apart in the source
mitochondria = assay: Hydrogen peroxide levels on mitochondrial inhibition (unpublished results)
Description: Various experimental models of Parkinson's disease and other maladies have implicated mitochondrial dysfunction and excessive Reactive Oxygen Species (ROS) as possible contributors. Fortunately it is routine in the art to screen mitochondrial inhibitors or indeed any platelet inhibitor for hydrogen peroxide production in vitro, to select active agents that are suitable for long term administration as long as the production of hydrogen peroxide is not excessive.

platelets in whole blood = assay: Platelet function testing with the Hemostasis Mechanism Analyzer (HMA): clumping, sticking, clotting in whole blood; type: cell-based, human; conditions: for activity at 700 µg/mL / activity at 3300 µg/mL / activity at 6700 µg/mL / activity at 11700 µg/mL / activity at 23300 µg/mL / activity at 1300 µg/mL / activity at 2700 µg/mL / activity at 5300 µg/mL / activity at 10700 µg/mL / activity at 5000 µg/mL: Homo sapiens, Platelet, 0 dosage = 100; for activity at 700 µg/mL: Dosage (mg/ml) 0.7; for activity at 3300 µg/mL: Dosage (mg/ml) 3.3; for activity at 6700 µg/mL: Dosage (mg/ml) 6.7; for activity at 11700 µg/mL: Dosage (mg/ml) 11.7; for activity at 23300 µg/mL: Dosage (mg/ml) 23.3; for activity at 1300 µg/mL: Dosage (mg/ml) 1.3; for activity at 2700 µg/mL: Dosage (mg/ml) 2.7; for activity at 5300 µg/mL: Dosage (mg/ml) 5.3; for activity at 10700 µg/mL: Dosage (mg/ml) 10.7; for activity at 5000 µg/mL: Dosage (mg/ml) 5
[3] = in vitro whole blood assay, clumping, sticking, clotting
[4] = read-out: % clump time increase
[5] = read-out: % stick time increase

Compound: tetrazole [Compound 93]
- IC50 (mg/ml) mitochondria inhibition [1]: 31.5 mg/mL
- Reversible? ([2]; reversible if respiration rate after removing the inhibitor returned to greater than 75% of its value in the absence of inhibitor): reversible and Yes
- hydrogen peroxide levels (mitochondria): elevated levels of hydrogen peroxide
- % clot time increase (platelets in whole blood): 150% and 128% and 114%
- % clump time increase (platelets in whole blood): 211% and 194% and 116%
- % stick time increase (platelets in whole blood): 193% and 173% and 116%

Compound: Brc1nn[nH]c1Br [Compound 48, 4,5-dibromo-1H-triazole]
- IC50 (mg/ml) mitochondria inhibition [1]: 30 mg/mL (≈ 132 mM)
- Reversible? [2]: reversible and Yes
- activity in the platelet assays (active agent or inactive) (platelets in whole blood; [3]): met the criteria for active agents

Compound: Cc1ncsc1C [Compound 92, 4,5-dimethylthiazole]
- IC50 (mg/ml) mitochondria inhibition [1]: 50.9 mg/mL (≈ 450 mM)
- activity at 700 µg/mL (platelets in whole blood; read-out: % clot time increase): 100%
- activity at 700 µg/mL (platelets in whole blood; [4]): 112%
- activity at 700 µg/mL (platelets in whole blood; [5]): 118%
- activity at 3300 µg/mL (platelets in whole blood; read-out: % clot time increase): 101%
- activity at 3300 µg/mL (platelets in whole blood; [4]): 176%
- activity at 3300 µg/mL (platelets in whole blood; [5]): 171%
- activity at 6700 µg/mL (platelets in whole blood; read-out: % clot time increase): 106%
- activity at 6700 µg/mL (platelets in whole blood; [4]): 195%
- activity at 6700 µg/mL (platelets in whole blood; [5]): 179%
- activity at 11700 µg/mL (platelets in whole blood; read-out: % clot time increase): 126%
- activity at 11700 µg/mL (platelets in whole blood; [4]): 224%
- activity at 11700 µg/mL (platelets in whole blood; [5]): 211%
- activity at 23300 µg/mL (platelets in whole blood; read-out: % clot time increase): 162%
- activity at 23300 µg/mL (platelets in whole blood; [4]): 717%
- activity at 23300 µg/mL (platelets in whole blood; [5]): 546%

Compound: Cc1ncsc1CCOC(=O)C[P+](c1ccccc1)(c1ccccc1)c1ccccc1.[Br-] [Compound 49, [2-[2-(4-methylthiazol-5-yl)ethoxy]-2-oxo-ethyl]-triphenyl-phosphonium bromide]
- IC50 (mg/ml) mitochondria inhibition [1]: 8.8 mg/mL
- Reversible? [2]: irreversible and No
- activity in the platelet assays (active agent or inactive) (platelets in whole blood): significantly reduced platelet activity or aggregation

Compound: O=C(O)CCCCC1CCSS1 (single isomer, unassigned) [Compound 90, 5-[(3R or 3S)-dithiolan-3-yl]pentanoic acid]
- IC50 (mg/ml) mitochondria inhibition [1]: 37.1 mg/mL (≈ 180 mM)
- activity at 3300 µg/mL (platelets in whole blood; read-out: % clot time increase): 97%
- activity at 3300 µg/mL (platelets in whole blood; [4]): 102%
- activity at 3300 µg/mL (platelets in whole blood; [5]): 104%
- activity at 6700 µg/mL (platelets in whole blood; read-out: % clot time increase): 104%
- activity at 6700 µg/mL (platelets in whole blood; [4]): 97%
- activity at 6700 µg/mL (platelets in whole blood; [5]): 100%
- activity at 11700 µg/mL (platelets in whole blood; read-out: % clot time increase): 100%
- activity at 11700 µg/mL (platelets in whole blood; [4]): 110%
- activity at 11700 µg/mL (platelets in whole blood; [5]): 110%
- activity at 23300 µg/mL (platelets in whole blood; read-out: % clot time increase): 110%
- activity at 23300 µg/mL (platelets in whole blood; [4]): 129%
- activity at 23300 µg/mL (platelets in whole blood; [5]): 136%
- activity in the platelet assays (active agent or inactive) (platelets in whole blood; [3]): inactive

Compound: Cn1c(-c2ccccc2)c[nH]c1=S [Compound 91, 3-methyl-4-phenyl-1H-imidazole-2-thione]
- IC50 (mg/ml) mitochondria inhibition [1]: 5.4 mg/mL (≈ 28.4 mM)
- activity in the platelet assays (active agent or inactive) (platelets in whole blood; [3]): inactive

Compound: Cc1cscn1 [Compound 75, 4-methylthiazole]
- IC50 (mg/ml) mitochondria inhibition [1]: 40.6 mg/mL (≈ 409 mM)
- activity at 700 µg/mL (platelets in whole blood; read-out: % clot time increase): 103%
- activity at 700 µg/mL (platelets in whole blood; [4]): 115%
- activity at 700 µg/mL (platelets in whole blood; [5]): 106%
- activity at 1300 µg/mL (platelets in whole blood; read-out: % clot time increase): 106%
- activity at 1300 µg/mL (platelets in whole blood; [4]): 109%
- activity at 1300 µg/mL (platelets in whole blood; [5]): 102%
- activity at 2700 µg/mL (platelets in whole blood; read-out: % clot time increase): 108%
- activity at 2700 µg/mL (platelets in whole blood; [4]): 126%
- activity at 2700 µg/mL (platelets in whole blood; [5]): 123%
- activity at 5300 µg/mL (platelets in whole blood; read-out: % clot time increase): 114%
- activity at 5300 µg/mL (platelets in whole blood; [4]): 136%
- activity at 5300 µg/mL (platelets in whole blood; [5]): 132%
- activity at 10700 µg/mL (platelets in whole blood; read-out: % clot time increase): 122%
- activity at 10700 µg/mL (platelets in whole blood; [4]): 164%
- activity at 10700 µg/mL (platelets in whole blood; [5]): 155%

Compound: Cn1nnnc1S [Compound 53, 1-methyltetrazole-5-thiol]
- IC50 (mg/ml) mitochondria inhibition [1]: 27.5 mg/mL (≈ 237 mM)
- activity at 3300 µg/mL (platelets in whole blood; read-out: % clot time increase): 117%
- activity at 3300 µg/mL (platelets in whole blood; [4]): 124%
- activity at 3300 µg/mL (platelets in whole blood; [5]): 117%
- activity at 5000 µg/mL (platelets in whole blood; read-out: % clot time increase): 132%
- activity at 5000 µg/mL (platelets in whole blood; [4]): 185%
- activity at 5000 µg/mL (platelets in whole blood; [5]): 176%
- activity at 6700 µg/mL (platelets in whole blood; read-out: % clot time increase): 160%
- activity at 6700 µg/mL (platelets in whole blood; [4]): 292%
- activity at 6700 µg/mL (platelets in whole blood; [5]): 265%

Compound: Sc1ncc[nH]1 [Compound 84, 1H-imidazole-2-thiol]
- IC50 (mg/ml) mitochondria inhibition [1]: 17.3 mg/mL (≈ 173 mM)
- activity at 6700 µg/mL (platelets in whole blood; read-out: % clot time increase): 99%
- activity at 6700 µg/mL (platelets in whole blood; [4]): 113%
- activity at 6700 µg/mL (platelets in whole blood; [5]): 105%
- activity at 11700 µg/mL (platelets in whole blood; read-out: % clot time increase): 110%
- activity at 11700 µg/mL (platelets in whole blood; [4]): 121%
- activity at 11700 µg/mL (platelets in whole blood; [5]): 111%
- activity at 23300 µg/mL (platelets in whole blood; read-out: % clot time increase): 128%
- activity at 23300 µg/mL (platelets in whole blood; [4]): 149%
- activity at 23300 µg/mL (platelets in whole blood; [5]): 142%
- activity in the platelet assays (active agent or inactive) (platelets in whole blood; [3]): met the criteria for active agents

Compound: Cc1cncs1 [Compound 94, 5-methylthiazole]
- IC50 (mg/ml) mitochondria inhibition [1]: 23.5 mg/mL (≈ 237 mM)
- Reversible? [2]: reversible and Yes

Compound: CSc1nnn[nH]1 [Compound 83, 5-methylsulfanyl-1H-tetrazole]
- IC50 (mg/ml) mitochondria inhibition [1]: 14.5 mg/mL (≈ 125 mM)
- Reversible? [2]: reversible and Yes
- activity at 3300 µg/mL (platelets in whole blood; read-out: % clot time increase): 127%
- activity at 3300 µg/mL (platelets in whole blood; [4]): 167%
- activity at 3300 µg/mL (platelets in whole blood; [5]): 157%
- activity at 5000 µg/mL (platelets in whole blood; read-out: % clot time increase): 191%
- activity at 5000 µg/mL (platelets in whole blood; [4]): 584%
- activity at 5000 µg/mL (platelets in whole blood; [5]): 512%
- activity at 6700 µg/mL (platelets in whole blood; read-out: % clot time increase): 297%

Compound: OCc1c[nH]c2ccccc12 [Compound 77, 1H-indol-3-ylmethanol]
- IC50 (mg/ml) mitochondria inhibition [1]: 82.8 mg/mL (≈ 563 mM)
- activity at 700 µg/mL (platelets in whole blood; read-out: % clot time increase): 102%
- activity at 700 µg/mL (platelets in whole blood; [4]): 95%
- activity at 700 µg/mL (platelets in whole blood; [5]): 92%
- activity at 3300 µg/mL (platelets in whole blood; read-out: % clot time increase): 104%
- activity at 3300 µg/mL (platelets in whole blood; [4]): 81%
- activity at 3300 µg/mL (platelets in whole blood; [5]): 86%
- activity at 6700 µg/mL (platelets in whole blood; read-out: % clot time increase): 105%
- activity at 6700 µg/mL (platelets in whole blood; [4]): 109%
- activity at 6700 µg/mL (platelets in whole blood; [5]): 97%
- activity at 11700 µg/mL (platelets in whole blood; read-out: % clot time increase): 108%
- activity at 11700 µg/mL (platelets in whole blood; [4]): 116%
- activity at 11700 µg/mL (platelets in whole blood; [5]): 114%
- activity at 23300 µg/mL (platelets in whole blood; read-out: % clot time increase): 126%
- activity at 23300 µg/mL (platelets in whole blood; [4]): 140%
- activity at 23300 µg/mL (platelets in whole blood; [5]): 100%
- activity in the platelet assays (active agent or inactive) (platelets in whole blood; [3]): met the criteria for active agents

Compound: Thiazole [Compound 47]
- IC50 (mg/ml) mitochondria inhibition [1]: 21.3 mg/mL
- Reversible? [2]: reversible and Yes
- activity in the platelet assays (active agent or inactive) (platelets in whole blood): inactive

Compound: Nc1nnn[nH]1 [Compound 34, 1H-tetrazol-5-amine]
- IC50 (mg/ml) mitochondria inhibition [1]: 8.5 mg/mL (≈ 99.9 mM)
- Reversible? [2]: reversible and Yes

Compound: Clc1nnnn1-c1ccccc1 [Compound 54, 5-chloro-1-phenyl-tetrazole]
- IC50 (mg/ml) mitochondria inhibition [1]: 12.5 mg/mL (≈ 69.2 mM)
- activity in the platelet assays (active agent or inactive) (platelets in whole blood; [3]): inactive

Compound: O=C(O)Cc1nnn[nH]1 [Compound 82, 2-(1H-tetrazol-5-yl)acetic acid]
- IC50 (mg/ml) mitochondria inhibition [1]: 11.8 mg/mL (≈ 92.1 mM)
- activity at 3300 µg/mL (platelets in whole blood; read-out: % clot time increase): 137%
- activity at 3300 µg/mL (platelets in whole blood; [4]): 240%
- activity at 3300 µg/mL (platelets in whole blood; [5]): 222%
- activity at 5000 µg/mL (platelets in whole blood; read-out: % clot time increase): 217%
- activity at 5000 µg/mL (platelets in whole blood; [4]): 755%
- activity at 5000 µg/mL (platelets in whole blood; [5]): 601%

Compound: c1cncnc1 [Compound 81, pyrimidine]
- IC50 (mg/ml) mitochondria inhibition [1]: 51.5 mg/mL (≈ 643 mM)
- activity in the platelet assays (active agent or inactive) (platelets in whole blood; [3]): inactive
